Assay results as given in patent US20240376121A1, “COMPOUNDS AND USES THEREOF” (Foghorn Therapeutics Inc., priority 2021, published 2024).

Assays:
HiBit-BRM fusion protein = molecular target: T1, HiBit-BRM fusion protein (Homo sapiens, UniProt P51531); test: HiBiT-BRM cell-based degradation assay (Nano-Glo HiBiT Lytic Detection); conditions: stable HeLa cell line expressing HiBiT-BRM, 24 h incubation; for BRM HiBit Degradation Maximum (%): top dose 30 μM; for DC50: read-out: BRM HiBit Degradation IC50
T1 construct: expressed in transfected cells
Procedure, shortened: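 Stable HiBiT-BRM HeLa line; 24 h compound exposure, top final 30 μM, 3-fold, 10 pts in duplicate. Lytic HiBiT/LgBiT luminescence readout. % degradation vs DMSO (0%) and 2 μM known BRM/BRG1 degrader (100%).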

[1] = molecular target: T2, HiBit-BRG1 fusion protein (Homo sapiens, UniProt P51532); test: HiBiT-BRG1 cell-based degradation assay (Nano-Glo HiBiT Lytic Detection); conditions: stable HeLa cell line expressing HiBit-BRG1 and LgBit, 24 h incubation; for Dmax: top dose 30 μM, read-out: BRG1 HiBit Degradation Maximum (%); for DC50: read-out: BRMG1 HiBit Degradation IC50
T2 construct: expressed in transfected cells
Procedure, shortened: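 Degradation was scored from HiBiT lytic luminescence, scaled between DMSO-treated wells and wells given 2 μM of a standard BRM/BRG1 degrader. Cells were a stable HeLa HiBiT-BRG1/LgBiT line dosed for 24 h, ten concentrations in 3-fold steps from 30 μM, in duplicate.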

T2 sequence (P51532 whole entry, the tested form may be a part): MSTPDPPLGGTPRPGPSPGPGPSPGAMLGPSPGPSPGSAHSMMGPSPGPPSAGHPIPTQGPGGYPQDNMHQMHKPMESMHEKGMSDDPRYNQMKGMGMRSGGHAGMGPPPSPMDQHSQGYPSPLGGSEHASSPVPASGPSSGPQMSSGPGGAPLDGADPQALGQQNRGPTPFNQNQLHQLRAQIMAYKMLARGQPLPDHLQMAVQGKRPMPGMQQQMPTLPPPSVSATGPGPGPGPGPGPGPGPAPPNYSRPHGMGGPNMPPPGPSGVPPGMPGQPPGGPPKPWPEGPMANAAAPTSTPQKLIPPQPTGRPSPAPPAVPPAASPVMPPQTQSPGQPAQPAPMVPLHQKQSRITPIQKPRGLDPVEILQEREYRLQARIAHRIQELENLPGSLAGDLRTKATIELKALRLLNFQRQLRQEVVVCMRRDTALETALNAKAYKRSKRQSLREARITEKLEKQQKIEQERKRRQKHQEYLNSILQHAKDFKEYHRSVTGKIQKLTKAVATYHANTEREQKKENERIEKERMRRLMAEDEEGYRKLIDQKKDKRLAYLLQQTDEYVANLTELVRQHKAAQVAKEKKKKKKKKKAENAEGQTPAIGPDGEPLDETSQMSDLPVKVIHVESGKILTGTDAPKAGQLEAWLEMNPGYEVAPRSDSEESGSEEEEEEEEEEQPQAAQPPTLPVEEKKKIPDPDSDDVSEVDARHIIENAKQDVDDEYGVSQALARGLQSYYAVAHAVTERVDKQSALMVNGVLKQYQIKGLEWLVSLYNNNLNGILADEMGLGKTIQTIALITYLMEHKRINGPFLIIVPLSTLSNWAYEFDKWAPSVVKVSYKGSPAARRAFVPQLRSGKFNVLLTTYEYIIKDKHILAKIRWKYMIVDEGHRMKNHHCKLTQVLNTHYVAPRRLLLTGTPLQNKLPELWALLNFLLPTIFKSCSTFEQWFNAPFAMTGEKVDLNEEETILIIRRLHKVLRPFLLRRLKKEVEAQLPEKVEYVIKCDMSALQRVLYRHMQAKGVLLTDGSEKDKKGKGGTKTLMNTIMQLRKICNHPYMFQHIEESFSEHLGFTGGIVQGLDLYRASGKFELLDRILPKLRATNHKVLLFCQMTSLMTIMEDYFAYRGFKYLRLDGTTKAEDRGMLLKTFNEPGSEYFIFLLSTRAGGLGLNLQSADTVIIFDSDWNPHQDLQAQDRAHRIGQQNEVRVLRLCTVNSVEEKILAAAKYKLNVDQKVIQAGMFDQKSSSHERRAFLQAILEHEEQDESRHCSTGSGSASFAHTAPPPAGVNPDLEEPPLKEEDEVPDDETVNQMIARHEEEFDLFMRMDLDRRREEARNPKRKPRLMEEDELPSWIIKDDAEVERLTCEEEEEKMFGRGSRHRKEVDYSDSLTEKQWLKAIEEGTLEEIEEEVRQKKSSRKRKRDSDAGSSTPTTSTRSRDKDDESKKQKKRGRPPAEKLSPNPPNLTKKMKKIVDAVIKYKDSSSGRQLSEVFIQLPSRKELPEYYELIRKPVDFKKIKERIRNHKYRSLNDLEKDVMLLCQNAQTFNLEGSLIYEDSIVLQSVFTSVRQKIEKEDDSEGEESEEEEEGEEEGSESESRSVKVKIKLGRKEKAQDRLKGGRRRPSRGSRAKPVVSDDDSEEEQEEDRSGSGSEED
T1 sequence (P51531 whole entry, the tested form may be a part): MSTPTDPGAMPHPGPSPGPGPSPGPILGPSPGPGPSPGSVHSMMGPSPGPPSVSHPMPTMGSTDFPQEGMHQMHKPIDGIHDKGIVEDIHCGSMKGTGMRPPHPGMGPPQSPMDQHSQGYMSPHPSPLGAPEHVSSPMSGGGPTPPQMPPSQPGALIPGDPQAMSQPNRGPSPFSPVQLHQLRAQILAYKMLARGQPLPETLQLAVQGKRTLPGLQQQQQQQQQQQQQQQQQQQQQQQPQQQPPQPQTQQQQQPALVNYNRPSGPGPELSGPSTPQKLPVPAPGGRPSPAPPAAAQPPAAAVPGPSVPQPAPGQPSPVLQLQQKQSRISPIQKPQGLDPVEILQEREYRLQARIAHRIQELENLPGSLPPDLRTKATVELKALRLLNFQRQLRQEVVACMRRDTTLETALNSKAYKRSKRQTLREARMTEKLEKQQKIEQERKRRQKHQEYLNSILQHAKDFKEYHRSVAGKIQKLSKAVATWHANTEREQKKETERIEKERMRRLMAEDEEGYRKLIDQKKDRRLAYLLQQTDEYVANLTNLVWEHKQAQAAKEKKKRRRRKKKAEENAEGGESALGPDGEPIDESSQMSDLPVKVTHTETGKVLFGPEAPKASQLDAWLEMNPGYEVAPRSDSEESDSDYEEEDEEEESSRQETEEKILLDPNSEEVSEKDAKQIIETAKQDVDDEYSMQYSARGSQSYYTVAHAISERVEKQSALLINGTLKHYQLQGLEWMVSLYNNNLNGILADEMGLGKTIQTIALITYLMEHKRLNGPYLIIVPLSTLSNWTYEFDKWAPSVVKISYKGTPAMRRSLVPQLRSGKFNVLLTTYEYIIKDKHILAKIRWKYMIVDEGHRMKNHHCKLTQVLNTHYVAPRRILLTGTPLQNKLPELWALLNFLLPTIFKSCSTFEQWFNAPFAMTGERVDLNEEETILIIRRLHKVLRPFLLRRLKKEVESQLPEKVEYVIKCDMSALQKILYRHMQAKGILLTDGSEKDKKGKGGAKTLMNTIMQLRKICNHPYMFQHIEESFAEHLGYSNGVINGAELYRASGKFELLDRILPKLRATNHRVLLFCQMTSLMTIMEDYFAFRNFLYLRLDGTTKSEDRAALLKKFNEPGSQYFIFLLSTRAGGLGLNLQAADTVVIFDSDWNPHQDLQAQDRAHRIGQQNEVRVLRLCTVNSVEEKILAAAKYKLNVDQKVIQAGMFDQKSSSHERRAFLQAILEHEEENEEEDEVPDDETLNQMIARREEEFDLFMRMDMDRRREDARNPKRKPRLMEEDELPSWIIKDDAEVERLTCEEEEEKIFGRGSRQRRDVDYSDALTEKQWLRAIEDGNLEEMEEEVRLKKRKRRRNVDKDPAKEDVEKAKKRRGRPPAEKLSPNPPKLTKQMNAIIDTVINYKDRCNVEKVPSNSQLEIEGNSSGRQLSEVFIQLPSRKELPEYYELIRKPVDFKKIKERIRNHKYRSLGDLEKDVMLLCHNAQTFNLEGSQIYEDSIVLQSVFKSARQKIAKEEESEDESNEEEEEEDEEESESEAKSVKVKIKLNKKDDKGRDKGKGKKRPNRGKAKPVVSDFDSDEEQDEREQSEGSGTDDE

| SMILES | DC50 (HiBit-BRM fusion protein) [µM] | Dmax [1] [%] | DC50 [1] [µM] | BRM HiBit Degradation Maximum (%) (HiBit-BRM fusion protein) |
| --- | --- | --- | --- | --- |
| Cc1ncsc1-c1ccc([C@H](C)NC(=O)[C@@H]2C[C@@H](O)CN2C(=O)[C@@H](c2cc(OCCN3CCN(c4cc5nnc(-c6ccccc6O)cc5s4)CC3)no2)C(C)C)cc1 [Compound 49, (2S,4R)-4-hydroxy-1-((R)-2-(3-(2-(4-(3-(2-hydroxyphenyl)thieno[3,2-c]pyridazin-6-yl)piperazin-1-yl)ethoxy)isoxazol-5-yl)-3-methylbutanoyl)-N-((S)-1-(4-(4-methylthiazol-5-yl)phenyl)ethyl)pyrrolidine-2-carboxamide] | < 0.01 | ≥ 75 | ≥ 0.01 | A (“A” indicates maximum degradation ≥ 75%) |
| Cc1ncsc1-c1ccc([C@H](C)NC(=O)[C@@H]2C[C@@H](O)CN2C(=O)[C@@H](NC(=O)[C@H]2CC[C@@H](c3sc4nnc(-c5ccccc5O)cc4c3C)CC2)C(C)(C)C)cc1 [Compound 50, (2S,4R)-4-hydroxy-1-((S)-2-((1s,4R)-4-(3-(2-hydroxyphenyl)-5-methylthieno[2,3-c]pyridazin-6-yl)cyclohexane-1-carboxamido)-3,3-dimethylbutanoyl)-N-((S)-1-(4-(4-methylthiazol-5-yl)phenyl)ethyl)pyrrolidine-2-carboxamide] | ≥ 1 | < 50 | ≥ 1 | C (“C” indicates maximum degradation < 50%) |
| Cc1ncsc1-c1ccc([C@H](C)NC(=O)[C@@H]2C[C@@H](O)CN2C(=O)[C@@H](NC(=O)[C@H]2CC[C@H](c3sc4nnc(-c5ccccc5O)cc4c3C)CC2)C(C)(C)C)cc1 [Compound 51, (2S,4R)-4-hydroxy-1-((S)-2-((1r,4S)-4-(3-(2-hydroxyphenyl)-5-methylthieno[2,3-c]pyridazin-6-yl)cyclohexane-1-carboxamido)-3,3-dimethylbutanoyl)-N-((S)-1-(4-(4-methylthiazol-5-yl)phenyl)ethyl)pyrrolidine-2-carboxamide] | ≥ 1 | < 50 | ≥ 1 | C (“C” indicates maximum degradation < 50%) |
| Cc1ncsc1-c1ccc([C@H](C)NC(=O)[C@@H]2C[C@@H](O)CN2C(=O)[C@@H](c2cc(OCCN3CCC(O)(c4sc5nnc(-c6ccccc6O)cc5c4C)CC3)no2)C(C)C)cc1 [Compound 54, (2S,4R)-4-hydroxy-1-((R)-2-(3-(2-(4-hydroxy-4-(3-(2-hydroxyphenyl)-5-methylthieno[2,3-c]pyridazin-6-yl)piperidin-1-yl)ethoxy)isoxazol-5-yl)-3-methylbutanoyl)-N-((S)-1-(4-(4-methylthiazol-5-yl)phenyl)ethyl)pyrrolidine-2-carboxamide] | ≥ 0.01 | < 50 | ≥ 1 | A (“A” indicates maximum degradation ≥ 75%) |
| Cc1ncsc1-c1ccc([C@H](C)NC(=O)[C@@H]2C[C@@H](O)CN2C(=O)[C@@H](c2cc(O[C@H]3C[C@H](N4CCC(c5sc6nnc(-c7ccccc7O)cc6c5C)CC4)C3)no2)C(C)C)cc1 [Compound 59, (2S,4R)-4-hydroxy-1-((R)-2-(3-((1r,3R)-3-(4-(3-(2-hydroxyphenyl)-5-methylthieno[2,3-c]pyridazin-6-yl)piperidin-1-yl)cyclobutoxy)isoxazol-5-yl)-3-methylbutanoyl)-N-((S)-1-(4-(4-methylthiazol-5-yl)phenyl)ethyl)pyrrolidine-2-carboxamide] | ≥ 1 | < 50 | ≥ 1 | A (“A” indicates maximum degradation ≥ 75%) |
| Cc1ncsc1-c1ccc([C@H](C)NC(=O)[C@@H]2C[C@@H](O)CN2C(=O)[C@@H](c2cc(O[C@H]3C[C@@H](N4CCC(c5sc6nnc(-c7ccccc7O)cc6c5C)CC4)C3)no2)C(C)C)cc1 [Compound 61, (2S,4R)-4-hydroxy-1-((R)-2-(3-((1s,3S)-3-(4-(3-(2-hydroxyphenyl)-5-methylthieno[2,3-c]pyridazin-6-yl)piperidin-1-yl)cyclobutoxy)isoxazol-5-yl)-3-methylbutanoyl)-N-((S)-1-(4-(4-methylthiazol-5-yl)phenyl)ethyl)pyrrolidine-2-carboxamide] | ≥ 1 | < 50 | ≥ 1 | C (“C” indicates maximum degradation < 50%) |
| Cc1ncsc1-c1ccc([C@H](C)NC(=O)[C@@H]2C[C@@H](O)CN2C(=O)[C@@H](c2cc(OCCN3C[C@H]4C[C@@H](C3)[C@H]4c3sc4nnc(-c5ccccc5O)cc4c3C)no2)C(C)C)cc1 [Compound 62, (2S,4R)-4-hydroxy-1-((R)-2-(3-(2-((1R,5S,6S)-6-(3-(2-hydroxyphenyl)-5-methylthieno[2,3-c]pyridazin-6-yl)-3-azabicyclo[3.1.1]heptan-3-yl)ethoxy)isoxazol-5-yl)-3-methylbutanoyl)-N-((S)-1-(4-(4-methylthiazol-5-yl)phenyl)ethyl)pyrrolidine-2-carboxamide] | ≥ 1 | < 50 | ≥ 1 | C (“C” indicates maximum degradation < 50%) |
| Cc1ncsc1-c1ccc([C@H](C)NC(=O)[C@@H]2C[C@@H](O)CN2C(=O)[C@@H](c2cc(OCCN3C[C@H]4C[C@@H](C3)[C@@H]4c3sc4nnc(-c5ccccc5O)cc4c3C)no2)C(C)C)cc1 [Compound 63, (2S,4R)-4-hydroxy-1-((R)-2-(3-(2-((1R,5S,6R)-6-(3-(2-hydroxyphenyl)-5-methylthieno[2,3-c]pyridazin-6-yl)-3-azabicyclo[3.1.1]heptan-3-yl)ethoxy)isoxazol-5-yl)-3-methylbutanoyl)-N-((S)-1-(4-(4-methylthiazol-5-yl)phenyl)ethyl)pyrrolidine-2-carboxamide] | ≥ 0.01 | < 50 | ≥ 1 | A (“A” indicates maximum degradation ≥ 75%) |

More lines, main results first:

| DC50 (HiBit-BRM fusion protein) [µM] | Dmax [1] [%] | DC50 [1] [µM] | SMILES | BRM HiBit Degradation Maximum (%) (HiBit-BRM fusion protein) |
| --- | --- | --- | --- | --- |
| ≥ 1 | < 50 | ≥ 1 | Cc1ncsc1-c1ccc([C@H](C)NC(=O)[C@@H]2C[C@@H](O)CN2C(=O)[C@@H](c2cc(N3CCN(C(=O)[C@H]4CCc5sc6nnc(-c7ccccc7O)cc6c5C4)CC3)no2)C(C)C)cc1 [Compound 52, (2S,4R)-4-hydroxy-1-((R)-2-(3-(4-((S)-3-(2-hydroxyphenyl)-5,6,7,8-tetrahydrobenzo[4,5]thieno[2,3-c]pyridazine-6-carbonyl)piperazin-1-yl)isoxazol-5-yl)-3-methylbutanoyl)-N-((S)-1-(4-(4-methylthiazol-5-yl)phenyl)ethyl)pyrrolidine-2-carboxamide] | C (“C” indicates maximum degradation < 50%) |
| ≥ 0.01 | < 50 | ≥ 1 | Cc1cc([C@H](C(=O)N2C[C@H](O)C[C@H]2C(=O)NCc2ccc(-c3scnc3C)cc2OCCCN2CCC(c3sc4nnc(-c5ccccc5O)cc4c3C)CC2)C(C)C)on1 [Compound 57, (2S,4R)-4-hydroxy-N-(2-(3-(4-(3-(2-hydroxyphenyl)-5-methylthieno[2,3-c]pyridazin-6-yl)piperidin-1-yl)propoxy)-4-(4-methylthiazol-5-yl)benzyl)-1-((R)-3-methyl-2-(3-methylisoxazol-5-yl)butanoyl)pyrrolidine-2-carboxamide] | B (“B” indicates maximum degradation ≥ 50%) |
| ≥ 0.01 | < 50 | ≥ 1 | Cc1ncsc1-c1ccc([C@H](C)NC(=O)[C@@H]2C[C@@H](O)CN2C(=O)[C@@H](c2cc(OCCN3C[C@H]4C[C@@H]3C[C@@H]4c3sc4nnc(-c5ccccc5O)cc4c3C)no2)C(C)C)cc1 [Compound 58, (2S,4R)-4-hydroxy-1-[(2R)-2-(3-{2-[(1R,4S,5S)-5-[3-(2-hydroxyphenyl)-5-methylthieno[2,3-c]pyridazin-6-yl]-2-azabicyclo[2.2.1]heptan-2-yl]ethoxy}-1,2-oxazol-5-yl)-3-methylbutanoyl]-N-[(1S)-1-[4-(4-methyl-1,3-thiazol-5-yl)phenyl]ethyl]pyrrolidine-2-carboxamide] | A (“A” indicates maximum degradation ≥ 75%) |
| ≥ 0.01 | ≥ 50 | ≥ 0.1 | Cc1ncsc1-c1ccc([C@H](C)NC(=O)[C@@H]2C[C@@H](O)CN2C(=O)[C@@H](c2cc(OCCN3C[C@H]4C[C@@H]3C[C@H]4c3sc4nnc(-c5ccccc5O)cc4c3C)no2)C(C)C)cc1 [Compound 60, (2S,4R)-4-hydroxy-1-((R)-2-(3-(2-((1R,4S,5R)-5-(3-(2-hydroxyphenyl)-5-methylthieno[2,3-c]pyridazin-6-yl)-2-azabicyclo[2.2.1]heptan-2-yl)ethoxy)isoxazol-5-yl)-3-methylbutanoyl)-N-((S)-1-(4-(4-methylthiazol-5-yl)phenyl)ethyl)pyrrolidine-2-carboxamide] | A (“A” indicates maximum degradation ≥ 75%) |
| < 0.01 | ≥ 75 | < 0.01 | Cc1ncsc1-c1ccc([C@H](C)NC(=O)[C@@H]2C[C@@H](O)CN2C(=O)[C@@H](c2cc(C34CC(C(=O)N5CCC(c6sc7nnc(-c8ccccc8O)cc7c6C)CC5)(C3)C4)no2)C(C)C)cc1 [Compound 64, (2S,4R)-4-hydroxy-1-((R)-2-(3-(3-(4-(3-(2-hydroxyphenyl)-5-methylthieno[2,3-c]pyridazin-6-yl)piperidine-1-carbonyl)bicyclo[1.1.1]pentan-1-yl)isoxazol-5-yl)-3-methylbutanoyl)-N-((S)-1-(4-(4-methylthiazol-5-yl)phenyl)ethyl)pyrrolidine-2-carboxamide] | A (“A” indicates maximum degradation ≥ 75%) |
